Data as given in PMC10321576, “Cyclic peptides target the aromatic cage of a PHD-finger reader domain to modulate epigenetic protein function” (Chemical Science, 2023).
Peptide text beside a SMILES is read from it.

Legend:
KDM7A PHD [1] = molecular target: T1, KDM7A PHD (Homo sapiens, UniProt Q6ZMT4); assay: ITC binding
T1 construct: KDM7A 38-98; made in house
T1 sequence (Q6ZMT4 38-98): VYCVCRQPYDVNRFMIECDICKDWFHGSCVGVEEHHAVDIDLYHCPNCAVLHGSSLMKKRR
Procedure: (§1) Figure S10. ITC results: Tabulated values from 1:1 binding model and conditions
(§2) ITC buffer = 50 mM HEPES, 100 mM NaCl, pH 7.4, 0.2 µm filtered), at 25 °C. Dual = PHD+JmjC. HisTrx
(§3) = His 6+thioredoxin tag, GST = glutathione S -transferase tag, ZB = Z -basic tag. Syringe contained
(§4) peptide solution in buffer. Cell contained protein solution in buffer.
(§5) (1 picture or pasted object on this page, not shown here)

KDM7C PHD [2] = molecular target: T2, KDM7C PHD (Homo sapiens, UniProt O75151); assay: ITC binding; settings: for Kd: 1:1 binding model
T2 construct: KDM7C 1-67; made in house
T2 sequence (O75151 1-67): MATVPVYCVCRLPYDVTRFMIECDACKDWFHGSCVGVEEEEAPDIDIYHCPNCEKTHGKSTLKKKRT
Procedure: as §1, §2, §3, §4, §5

KDM7A PHD [3] = molecular target: T1, KDM7A PHD; assay: AlphaScreen displacement of H3 1-21K4me3-Bt; assay type: binding; settings: average of two independent experiments
Description: (§6) The functional effect of OC9 on the PHD-finger was further assessed using an AlphaScreen (AS) based proximity assay. […]

KDM7A PHD+JmjC = KDM7A PHD+JmjC (Homo sapiens, UniProt Q6ZMT4); assay: AlphaScreen displacement of H3 1-21K4me3-Bt; assay type: binding; settings: average of two independent experiments
KDM7A PHD+JmjC, sequence (Q6ZMT4 38-386 limits assumed): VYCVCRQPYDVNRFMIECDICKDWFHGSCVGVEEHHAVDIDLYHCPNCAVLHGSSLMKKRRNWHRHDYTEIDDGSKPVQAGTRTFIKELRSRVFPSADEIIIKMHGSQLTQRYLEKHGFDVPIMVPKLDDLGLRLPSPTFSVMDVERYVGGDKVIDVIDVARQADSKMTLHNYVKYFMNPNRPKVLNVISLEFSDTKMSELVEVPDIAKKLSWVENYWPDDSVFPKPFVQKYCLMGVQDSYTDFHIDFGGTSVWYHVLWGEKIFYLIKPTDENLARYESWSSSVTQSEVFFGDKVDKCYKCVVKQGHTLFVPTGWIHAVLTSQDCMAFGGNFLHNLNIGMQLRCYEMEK
Description: as §6

KDM7B PHD = molecular target: T3, KDM7B PHD (Homo sapiens, UniProt Q9UPP1); assay: AlphaScreen displacement of H3 1-21K4me3-Bt; assay type: binding; settings: average of at least two independent experiments; read-out: AlphaScreen displacement IC50, KDM7B PHD
T3 construct: KDM7B 1-66; made in house
T3 sequence (Q9UPP1 1-66 isoform Q9UPP1-2): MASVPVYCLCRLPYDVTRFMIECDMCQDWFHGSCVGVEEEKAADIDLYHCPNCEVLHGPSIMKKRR
Description: as §6

KDM7B PHD+JmjC = molecular target: T4, KDM7B PHD+JmjC (Homo sapiens, UniProt Q9UPP1); assay: AlphaScreen displacement of H3 1-21K4me3-Bt; assay type: binding; settings: average of two independent experiments
T4 construct: dual domain (PHD-JmjC) of KDM7B; made in house
T4 sequence (Q9UPP1 37-483 limits assumed): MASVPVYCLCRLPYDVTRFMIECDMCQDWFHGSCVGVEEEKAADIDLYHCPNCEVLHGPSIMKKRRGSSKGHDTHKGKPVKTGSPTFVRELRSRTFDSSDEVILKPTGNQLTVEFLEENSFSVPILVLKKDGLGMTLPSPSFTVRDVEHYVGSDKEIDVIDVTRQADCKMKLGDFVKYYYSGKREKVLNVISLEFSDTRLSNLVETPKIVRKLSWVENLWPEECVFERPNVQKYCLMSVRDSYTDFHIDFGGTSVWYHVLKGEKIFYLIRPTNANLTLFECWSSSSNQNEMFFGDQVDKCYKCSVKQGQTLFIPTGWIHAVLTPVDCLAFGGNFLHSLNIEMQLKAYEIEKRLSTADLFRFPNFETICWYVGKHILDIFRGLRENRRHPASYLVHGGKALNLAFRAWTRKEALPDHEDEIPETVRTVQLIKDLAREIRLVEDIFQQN
Description: as §6

KDM7C PHD [4] = molecular target: T2, KDM7C PHD; assay: AlphaScreen displacement of H3 1-21K4me3-Bt; assay type: binding; settings: average of two independent experiments
Description: as §6

KDM7A dual domain = KDM7A dual domain (Homo sapiens, UniProt Q6ZMT4); assay: MALDI-TOF-MS KDM7 activity assay (H3 peptide demethylation); assay type: biochemical; settings: from <5% without OC9
KDM7A dual domain, sequence (Q6ZMT4 38-480 limits assumed): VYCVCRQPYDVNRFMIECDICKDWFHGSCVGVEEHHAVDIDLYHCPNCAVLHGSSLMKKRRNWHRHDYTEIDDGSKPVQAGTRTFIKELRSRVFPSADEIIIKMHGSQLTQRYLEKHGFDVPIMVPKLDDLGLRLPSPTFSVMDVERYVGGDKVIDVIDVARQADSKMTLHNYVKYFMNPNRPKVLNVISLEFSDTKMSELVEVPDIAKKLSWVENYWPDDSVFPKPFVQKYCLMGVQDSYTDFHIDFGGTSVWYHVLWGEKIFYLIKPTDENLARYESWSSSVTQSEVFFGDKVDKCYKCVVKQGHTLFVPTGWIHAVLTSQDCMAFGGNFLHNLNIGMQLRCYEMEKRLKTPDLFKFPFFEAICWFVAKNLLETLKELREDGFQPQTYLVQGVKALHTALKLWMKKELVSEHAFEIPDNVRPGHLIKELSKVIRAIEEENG
Procedure: Fig. 5 KDM7 PHD-finger inhibition by OC9 modulates dual domain JmjC activity. (a) (i–iii) OC9 inhibits demethylation of H3K9me2, with or without K4me3, by KDM7B (0.4 μM) on H3 peptide (2.5 μM). […] (b) (i–iii) OC9 enhances demethylation of H3K4me3K9me2 by KDM7A (0.55 μM) on H3 peptide (2.5 μM), and (iv) enhances KDM7A (0.5 μM) demethylation of calf histone extracts (50 μg). […] Inset MALDI-TOF-MS overlays are from respective highest OC9 concentration points compared to DMSO alone. KDM7 PHD-finger only proteins had no demethylase activity (Fig. S40 ^†). Calf histone H3K9me2 was quantitated relative to H4 band intensities at each time point, normalised to DMSO at t = 0. Full Western blots available in Fig. S42. ^† Relative rates (Krel min^−1) from a one-phase decay model, average from N = 3 independent experiments. […] The enzyme heading of the panel (KDM7B / KDM7A) was put in front of them. / DMSO is the vehicle control. Its printed rates (0.30 min^-1 in a, 0.04 min^-1 in b) are included because they are printed with its name.
In contrast to KDM7B, KDM7A lacks activity against H3K4me3K9me2, but demethylates H3_1–21K9me2.[57] OC9, however, restored the activity of KDM7A against H3_1–21K4me3K9me2 from <5% to a level (∼30%) that approached demethylation on H3_1–21K9me2 with DMSO alone (∼40%) (Fig. 5b and S39 ^†). […]

full-length KDM7B = assay: Pull-down from transfected HEK293T nuclear lysates; assay type: binding; settings: 100-fold excess competitor
Procedure: HEK293T cells were transiently transfected with either a full-length wild-type KDM7B, or an aromatic cage inactivating mutant KDM7B (Y14A, W29A).[20]
Capture was performed with 1 μM probe incubated in pre-cleared lysate, recovered with streptavidin-conjugated magnetic beads, then washed and eluted by heating in denaturing solution. 100-fold excess OC9 or OC9 V10A were used as competitors. […] The upper left quadrant indicates >5-fold difference in recovered protein (based on T-test difference of mean log 2 (LFQ) values) and p-value threshold <0.05.

[5] = tested on: SUP-T1 nuclear lysate proteins; assay: Pull-down and proteomics from SUP-T1 nuclear lysate; assay type: binding; settings: 1 μM OC9-Bt, 454 proteins identified
Procedure: Fig. 6 Selective capture of full-length KDM7 with OC9-Bt in nuclear lysates. (a) OC9-Bt, H3K4me3-Bt and Bt were used as affinity probes in HEK293T nuclear lysates, transiently transfected with wild type KDM7B, or PHD-finger mutant (Y14A, W29A). Capture was performed with 1 μM probe incubated in pre-cleared lysate, recovered with streptavidin-conjugated magnetic beads, then washed and eluted by heating in denaturing solution. 100-fold excess OC9 or OC9 V10A were used as competitors. […] (Left) Change in all protein (454) recoveries with competition by titration of unlabelled OC9. (Right) Volcano plot comparing relative abundance of pull-down content at 0 and 20 μM competition. The upper left quadrant indicates >5-fold difference in recovered protein (based on T-test difference of mean log 2 (LFQ) values) and p-value threshold <0.05.
A further chemoproteomic profiling analysis of endogenous protein capture by OC9-Bt from KDM7B-expressing T-cell lymphoblastic lymphoma SUP-T1 nuclear lysates[67] identified 454 proteins.

- Kd (KDM7A PHD [1]; 50 mM HEPES, 100 mM NaCl, pH 7.4, 25 °C, 1:1 binding model): 33.4 nM
- ITC ΔH, KDM7A PHD (KDM7A PHD [1]; 25 °C): -46.0 ± 1.3 kJ mol -1
- ITC N, KDM7A PHD (KDM7A PHD [1]; stoichiometry): 0.71 ± 0.01
- Kd (KDM7C PHD [2]; 50 mM HEPES, 100 mM NaCl, pH 7.4, 25 °C): 9.56 nM
- Kd (KDM7C PHD [2]): 10 ± 4 nM
- ITC ΔH, KDM7C PHD (KDM7C PHD [2]; 25 °C): -62.0 ± 1.0 kJ mol -1
- ITC N, KDM7C PHD (KDM7C PHD [2]; stoichiometry): 1.09 ± 0.01
- IC50 (KDM7A PHD [3]): 62 nM
- IC50 (KDM7A PHD+JmjC): 132 nM
- IC50 (KDM7B PHD): 32 nM
- IC50 (KDM7B PHD+JmjC): 95 nM
- IC50 (KDM7C PHD [4]): 26 nM
- activity of KDM7A against H3_1–21K4me3K9me2 restored by OC9 (demethylation level) (KDM7A dual domain): ~30%
Structure (SMILES): CC(C)C[C@@H]1NC(=O)[C@H](Cc2ccc(O)cc2)NC(=O)[C@H](Cc2ccc(O)cc2)NC(=O)CSC[C@@H](C(N)=O)NC(=O)[C@H]([C@@H](C)O)NC(=O)[C@H](CCCNC(=N)N)NC(=O)[C@H](Cc2ccccc2)NC(=O)[C@H](C(C)C)NC(=O)[C@H](CO)NC(=O)[C@@H]2CCCN2C(=O)[C@H](Cc2ccc(O)cc2)NC(=O)[C@@H]2CCCN2C(=O)[C@H](Cc2c[nH]cn2)NC(=O)[C@H]([C@@H](C)O)NC1=O [OC9] (HELM PEPTIDE1{[O=C(C[*:3])[*:2]].Y.Y.L.T.H.P.Y.P.S.V.F.R.T.C.[am]}$PEPTIDE1,PEPTIDE1,1:R3-15:R3$$$V2.0)
- competition of OC9-Bt pull-down of KDM7B (full-length KDM7B): substantially reduced KDM7B recovery
- proteins competed from OC9-Bt pull-down by titration of unlabelled OC9 [5]: Only the relative abundance of KDM7B and KDM7C were significantly affected
